Experimental data as given in patent US9150829B2, “Culture of pluripotent and multipotent cells on microcarriers” (AGENCY FOR SCIENCE, TECHNOLOY AND RESEARCH, priority 2009, dated 2015).
Converted amounts (≈) assume the structure as drawn.

Columns and labels:
[1] = target: Rho kinase (ROCK); conditions: cited from earlier work
[2] = target: MLCK (Homo sapiens, UniProt Q15746); conditions: cited from earlier work
[3] = target: PKC; conditions: read-out: Ki PKC; cited from earlier work
[4] = tested on: hESC (HES-2); experiment: Pluripotent marker expression in HES-2 on matrix free microcarriers with ROCK inhibitors; assay type: cell-based, human; conditions: for expression of pluripotent marker Tra-1-60 / expression of pluripotent marker Oct4: DE53
Protocol: (§1) Briefly, expression levels of extracellular antigens TRA-1-60 and intracellular transcription factor, Oct-4 in hESC populations are assessed by immunofluorescence using flow cytometry. Cells are harvested as single cell suspensions using trypsin or trypLE express, filtered through a 40 μm sieve (BD) fixed, permeabilised (Caltag Laboratories) and incubated with primary antibodies to TRA-1-60 (1:50 dilution, Chemicon, MAB4360/4381) and to Oct-4 (1:20 dilution, Santa Cruz).
(§2) Cells are then washed with 1% BSA/PBS, and incubated in the dark with a 1:500 dilution of goat α-mouse antibody FITC-conjugated (DAKO). After incubation, the cells are again washed and resuspended in 1% BSA/PBS for analysis on a FACScan (Becton Dickinson FACS Calibur). All incubations are performed at room temperature for 15 min.
A range of ROCK inhibitors (at 10 μM) were tested for their ability to allow hESC (HES-2) cell culture on matrix free cellulose DE53 microcarriers. These included fasudil, hydroxyfasudil and […] and were compared to a control (DE53 microcarriers coated in Matrigel).

[5] = target: phosphatidylinositol 3 (PI3) kinase; conditions: cited from earlier work
[6] = tested on: P14 kinase, PKC, MAP kinase or c-Src; conditions: concentration of 50 μM; cited from earlier work
[7] = tested on: hESC; experiment: hESC growth and passaging on uncoated microcarriers without Matrigel with ROCK inhibitor; assay type: cell-based, human
Protocol: Cells suspension obtained either from dispersed 2D colony culture or directly from liquid nitrogen storage (200×200 μm tissue obtained from 2D colony culture or as cell-microcarriers aggregates) are seeded at concentrations of 0.1-0.3×10^6/ml on microcarrier suspension (4 mg/ml). […] The media used are either MEF-CM or defined media. Medium is changed daily. The cultures are passaged weekly following either enzymatic treatment with collagenase or trypLE or following mechanical dissociating by repeated pipetting at a split ratio of 1:2 to 1:10. Replating of microcarrier cultures to 2D colony culture is done by placing confluent cell-microcarrier aggregates on Matrigel coated 6 cm tissue culture petridish with 8 mls of media, and culturing the cells for 7 days. Seeding of hESC on DE53, QA52, Tosoh, Cytodex 1 and Cytodex 3 microcarriers hESC were seeded on uncoated microcarriers and passaged weekly following the protocol of Example 3 and that of Oh et al., 2009 (Long term microcarrier suspension cultures of human embryonic stem cells, Stem Cell Research (2009)). All chemicals were purchased from Calbiochem. All inhibitors were diluted to their final working concentration in conditioned media prior to feeding hESC on microcarriers.

[8] = tested on: hESC; experiment: FACS of pluripotent markers in hESC on microcarriers; assay type: cell-based, human
Protocol: Characterisation was performed according to our recent paper by Oh et al., 2009 (Long term microcarrier suspension cultures of human embryonic stem cells, Stem Cell Research (2009)).
as §1, §2

[9] = tested on: iPS IMR90 cells; experiment: Human iPS cell growth on uncoated DE53 microcarriers with ROCK inhibitor; assay type: cell-based; conditions: uncoated DE53, mTeSR1, 10 μM daily, 12 passages
Protocol: (§3) iPS IMR90 cells (1.6×10^5 cells/ml) were cultured in wells of a 6-well plate with 20 mg of uncoated DE53, 5 ml of serum free media mTeSR1, 4 μl of ROCK inhibitor (Y27632) [10 μM]. 80% media refreshment and addition of inhibitor was carried out daily.

[10] = tested on: iPS IMR90 cells; experiment: Pluripotent marker expression in human iPS cells on DE53 microcarriers; assay type: cell-based; conditions: uncoated DE53, mTeSR1, 10 μM daily, 12 passages
Protocol: as §1, §2, §3

[11] = tested on: hESC (HES-2); experiment: Pluripotent marker expression in HES-2 on matrix free microcarriers with ROCK inhibitors; assay type: cell-based, human; conditions: Cytodex 1, 10 μM, passage 5
[12] = target: T1, PKCiota-Par6 interaction (Homo sapiens, UniProt P41743); conditions: read-out: IC50 (PKCiota-Par6 interaction inhibitor); cited from earlier work
T1 sequence (P41743 10-122 limits assumed): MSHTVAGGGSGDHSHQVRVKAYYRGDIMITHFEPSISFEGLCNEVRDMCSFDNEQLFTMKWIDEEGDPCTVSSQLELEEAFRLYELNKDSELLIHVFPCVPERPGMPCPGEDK

[13] = 10 μM, daily continuous addition, after 9 weeks
[14] = single dose addition (10 μM), after 6 weeks (P6)

Sequence of MLCK (Q15746 whole entry): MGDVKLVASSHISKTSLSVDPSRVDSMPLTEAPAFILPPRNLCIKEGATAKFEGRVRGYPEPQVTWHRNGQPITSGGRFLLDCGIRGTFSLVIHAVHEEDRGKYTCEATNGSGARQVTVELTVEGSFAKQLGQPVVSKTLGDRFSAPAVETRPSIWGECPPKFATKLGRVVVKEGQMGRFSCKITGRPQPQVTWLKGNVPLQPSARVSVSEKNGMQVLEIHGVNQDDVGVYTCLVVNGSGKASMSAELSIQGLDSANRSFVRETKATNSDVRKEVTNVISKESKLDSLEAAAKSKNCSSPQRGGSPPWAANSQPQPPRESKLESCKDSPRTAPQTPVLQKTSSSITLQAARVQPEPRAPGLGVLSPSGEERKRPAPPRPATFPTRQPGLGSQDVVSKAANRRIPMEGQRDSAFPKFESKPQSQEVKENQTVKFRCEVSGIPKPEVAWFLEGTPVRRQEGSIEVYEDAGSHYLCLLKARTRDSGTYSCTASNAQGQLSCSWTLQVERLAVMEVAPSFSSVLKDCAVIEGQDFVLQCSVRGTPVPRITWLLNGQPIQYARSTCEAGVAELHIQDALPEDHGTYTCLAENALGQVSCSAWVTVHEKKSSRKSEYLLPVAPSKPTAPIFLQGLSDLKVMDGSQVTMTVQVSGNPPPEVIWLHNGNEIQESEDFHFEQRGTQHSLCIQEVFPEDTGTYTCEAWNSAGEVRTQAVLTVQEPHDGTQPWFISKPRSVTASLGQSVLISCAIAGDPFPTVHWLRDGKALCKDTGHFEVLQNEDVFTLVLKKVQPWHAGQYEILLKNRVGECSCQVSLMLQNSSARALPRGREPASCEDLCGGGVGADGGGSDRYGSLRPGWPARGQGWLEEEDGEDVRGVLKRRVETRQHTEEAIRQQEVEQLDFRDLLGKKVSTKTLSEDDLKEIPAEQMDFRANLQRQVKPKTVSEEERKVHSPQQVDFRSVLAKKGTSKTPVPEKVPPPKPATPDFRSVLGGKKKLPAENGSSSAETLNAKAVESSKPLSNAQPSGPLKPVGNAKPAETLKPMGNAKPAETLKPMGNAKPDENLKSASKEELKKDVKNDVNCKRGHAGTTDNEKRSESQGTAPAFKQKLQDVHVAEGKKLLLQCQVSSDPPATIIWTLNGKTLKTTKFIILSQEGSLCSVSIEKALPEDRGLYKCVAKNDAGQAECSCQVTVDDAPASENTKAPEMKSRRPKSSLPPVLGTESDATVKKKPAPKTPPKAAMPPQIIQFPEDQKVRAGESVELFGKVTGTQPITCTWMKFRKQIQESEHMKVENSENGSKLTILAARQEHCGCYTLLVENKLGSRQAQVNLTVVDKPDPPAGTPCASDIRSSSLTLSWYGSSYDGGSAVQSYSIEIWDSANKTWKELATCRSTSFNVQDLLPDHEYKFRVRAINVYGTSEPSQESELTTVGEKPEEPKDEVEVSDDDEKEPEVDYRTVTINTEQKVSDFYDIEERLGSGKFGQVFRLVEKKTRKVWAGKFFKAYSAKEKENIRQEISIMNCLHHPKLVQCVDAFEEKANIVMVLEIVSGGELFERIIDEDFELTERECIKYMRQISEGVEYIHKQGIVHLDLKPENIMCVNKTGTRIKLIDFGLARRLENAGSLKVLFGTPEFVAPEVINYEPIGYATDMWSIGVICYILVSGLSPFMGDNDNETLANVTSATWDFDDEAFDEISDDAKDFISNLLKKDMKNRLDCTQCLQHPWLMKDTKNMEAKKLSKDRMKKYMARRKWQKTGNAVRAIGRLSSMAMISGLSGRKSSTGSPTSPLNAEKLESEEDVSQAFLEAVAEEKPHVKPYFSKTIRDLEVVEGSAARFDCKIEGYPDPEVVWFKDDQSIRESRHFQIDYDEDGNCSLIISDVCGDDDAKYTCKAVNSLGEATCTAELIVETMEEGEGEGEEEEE

Cc1cncc2cccc(S(=O)(=O)N3CCCNCC3C)c12 (stereo in doubt) [H-1152, (S)-(+)-2-Methyl-1-[(4-methyl-5-isoquinolinyl)sulfonyl]homopiperazine]
Ki [1]: 1.6 nM
Ki [2]: 10100 nM
Ki [3]: 9270 nM

c1ccc2c(-c3ccncc3)c[nH]c2c1 [3-(4-Pyridyl)-1H-indole]
IC50 [1]: 25000 nM

O=S(=O)(c1cccc2cnccc12)N1CCCNCC1 [HA-1077]
expression of pluripotent marker Tra-1-60 [4, 13]: about 80%
expression of pluripotent marker Oct4 [4, 14]: 60%
expression of pluripotent marker Tra-1-60 [4, 14]: about 80%

Cl.O=S(=O)(c1cccc2c(O)nccc12)N1CCCNCC1 [HA-1100]
expression of pluripotent marker Tra-1-60 [4, 13]: about 80%
expression of pluripotent marker Oct4 [4, 14]: 60%
expression of pluripotent marker Tra-1-60 [4, 14]: ~50%

O=c1cc(N2CCOCC2)oc2c(-c3ccccc3)cccc12 [LY294002]
IC50 [5]: 1400 nM
IC50 PI3 kinase activity [5]: 0.43 µg/mL (≈ 1.4 µM)
effect on PI3 kinase activity ([5]; concentration of 50 μM): specifically abolished PI3 kinase activity
inhibition of other lipid and protein kinases [6]: did not inhibit

O=C(Nc1ccncc1)Nc1c(Cl)cc(Cl)cc1Cl [N-(4-Pyridyl)-N′-(2,4,6-trichlorophenyl) urea]
IC50 [1]: 200 nM

C[C@@H](N)[C@H]1CC[C@H](C(=O)Nc2ccncc2)CC1 [Y-27632, (R)-(+)-trans-N-(4-Pyridyl)-4-(1-aminoethyl)-cyclohexanecarboxamide.2HCl]
consecutive weeks of passaging hESC ([7]; cellulose DE53 microcarriers, no Matrigel, 10 μM): 9 weeks
cell numbers ([7]; cellulose and Tosoh microcarriers, no Matrigel, passage 5): 4 million/well
consecutive weeks of passaging hESC ([7]; cellulose, Tosoh, Cytodex 1 and Cytodex 3 microcarriers, no Matrigel): five
consecutive weeks of passaging hESC ([7]; spherical polylysine Tosoh 65 micron microcarriers, no Matrigel): six
expression of pluripotent markers Oct4 and mAb 84 ([8]; Cytodex 1, Cytodex 3, cellulose and Tosoh microcarriers without Matrigel, passage 5): robust expression
expression of pluripotent markers Oct4, mAb 84 and Tra-1-60 ([8]; DE53 without Matrigel, 9 weeks): still robust
expression of pluripotent markers Oct4 and mAb 84 ([8]; DE53 without Matrigel, over 3 weeks): stable expression
expression of pluripotent markers Oct4 and Tra-1-60 ([8]; Tosoh polylysine microcarriers without Matrigel, passage 4): strongly expressed
pluripotent marker expression (Tra-1-60) versus Matrigel control cultures ([4]; Cytodex 1 and DE53 microcarriers, 10 μM): similar
expression of Tra-1-60 (FACS) ([4]; DE53, 10 μM, passage 5): ~92%
expression of pluripotent marker Oct4 [4, 14]: 60%
expression of pluripotent marker Tra-1-60 [4, 14]: about 80%
cell density [9]: stable over 12 passages
Oct4 and Tra-1-60 expression [10]: stable over 12 passages
expression of Tra-1-60 (FACS) [11]: ~94%

Aurothioglucose
passage successfully reached ([7]; uncoated DE53): 4 passage
expression of pluripotent markers Oct4 and mAb 84 ([8]; cellulose microcarriers without Matrigel, passage 0 and 1, compared to Matrigel control): stable expression
expression of pluripotency markers Oct4 and mAb84 ([8]; uncoated DE53, through passage 4): continued strong expression
expression of pluripotent marker Oct4 [4, 13]: ~50%
expression of pluripotent marker Tra-1-60 [4, 13]: ~60%
expression of pluripotent marker Oct4 [4, 14]: 60%
expression of pluripotent marker Tra-1-60 [4, 14]: ~70%
IC50 [12]: 1000 nM
